{"source": "BindingDB's records for doi:10.1021/jm970377o", "about": "(Abbott Laboratories, 1998)", "assay": "Compound was evaluated for functional potency and efficacy at human muscle type Nicotinic acetylcholine receptor in TE671 cells"}
{"compound": "CC(=O)C1=CC[N+](C)(C)CC1", "note": "[4-Acetyl-1,1-dimethyl-1,2,3,6-tetrahydro-pyridinium; iodide]", "values": [{"measurement": "EC50", "value": 100, "unit": "nM"}]}
